# According to patent US10039718B2, “Use of solid carrier particles to improve the processability of a pharmaceutical agent” (Gilead Sciences, Inc., priority 2008, dated 2018):
# Test: Water uptake (hygroscopicity) by dynamic vapor sorption (DVS)
# Type: physicochemical
# Conditions: 75% RH, 25° C., after 1 hour drying under dry nitrogen
# Protocol: The water uptake for AEROPERL® 300 (fumed silica), the Compound, and a sample of AEROPERL® 300 (fumed silica) loaded with 50.0% (w/w) of the Compound was measured as described below.
# The compound of formula (I) was dissolved in ethanol and this solution was poured onto a sample of fumed silica that was equal in weight to the amount of the compound of formula (I). The resulting mixture was thoroughly mixed and the solvent was evaporated to provide the compound/AEROPERL® 300 (fumed silica) material used for the uptake study below.
# The hygroscopicity of the samples was measured by dynamic vapor sorption (DVS) on a DVS Advantage-1 instrument from Surface Measurement Systems (SMS, Allentown, Pa.). In a DVS experiment the mass increase/decrease of a sample is measured at various relative humidity (RH) levels at a constant temperature. The instrument consists of a microbalance with one pan containing the sample (typically about 5-10 mg of sample) and an empty pan as a reference, and a water vapor generator to produce the desired relative humidity level. All experiments were run at a constant temperature of 25° C. For all experiments the samples were initially dried under a continuous flow of dry nitrogen for 1 hour to establish the dry mass m0. The relative humidity was then increased to 75% and the increase in mass was recorded as the samples take up water.
smiles,measurement,value
CC(C)c1nc(CN(C)C(=O)NC(CCN2CCOCC2)C(=O)NC(CCC(Cc2ccccc2)NC(=O)OCc2cncs2)Cc2ccccc2)cs1 (stereo not shown) [the Compound],water adsorbed (increase in mass at equilibrium),4.8 % (by weight)
